Laboratory results: patent US20240116920A1 (priority 2020, published 2024)

How the values were obtained:
JAK1/STAT3 signaling = assay: Immunobit cell-based pSTAT3 and pSTAT5 immunoassay; design: species or system human
[1] = test system: LX-2 human hepatic stellate cells; assay: TGF-β-induced LX-2 cell proliferation (CCK8); format: cell-based
JAK2 = JAK2 (Homo sapiens, UniProt O60674); assay: biochemical
TYK2 = TYK2 (Homo sapiens, UniProt P29597); assay: biochemical
JAK3 = target: T1, JAK3 (Homo sapiens, UniProt P52333); assay: biochemical
T1 sequence (P52333 1-1124): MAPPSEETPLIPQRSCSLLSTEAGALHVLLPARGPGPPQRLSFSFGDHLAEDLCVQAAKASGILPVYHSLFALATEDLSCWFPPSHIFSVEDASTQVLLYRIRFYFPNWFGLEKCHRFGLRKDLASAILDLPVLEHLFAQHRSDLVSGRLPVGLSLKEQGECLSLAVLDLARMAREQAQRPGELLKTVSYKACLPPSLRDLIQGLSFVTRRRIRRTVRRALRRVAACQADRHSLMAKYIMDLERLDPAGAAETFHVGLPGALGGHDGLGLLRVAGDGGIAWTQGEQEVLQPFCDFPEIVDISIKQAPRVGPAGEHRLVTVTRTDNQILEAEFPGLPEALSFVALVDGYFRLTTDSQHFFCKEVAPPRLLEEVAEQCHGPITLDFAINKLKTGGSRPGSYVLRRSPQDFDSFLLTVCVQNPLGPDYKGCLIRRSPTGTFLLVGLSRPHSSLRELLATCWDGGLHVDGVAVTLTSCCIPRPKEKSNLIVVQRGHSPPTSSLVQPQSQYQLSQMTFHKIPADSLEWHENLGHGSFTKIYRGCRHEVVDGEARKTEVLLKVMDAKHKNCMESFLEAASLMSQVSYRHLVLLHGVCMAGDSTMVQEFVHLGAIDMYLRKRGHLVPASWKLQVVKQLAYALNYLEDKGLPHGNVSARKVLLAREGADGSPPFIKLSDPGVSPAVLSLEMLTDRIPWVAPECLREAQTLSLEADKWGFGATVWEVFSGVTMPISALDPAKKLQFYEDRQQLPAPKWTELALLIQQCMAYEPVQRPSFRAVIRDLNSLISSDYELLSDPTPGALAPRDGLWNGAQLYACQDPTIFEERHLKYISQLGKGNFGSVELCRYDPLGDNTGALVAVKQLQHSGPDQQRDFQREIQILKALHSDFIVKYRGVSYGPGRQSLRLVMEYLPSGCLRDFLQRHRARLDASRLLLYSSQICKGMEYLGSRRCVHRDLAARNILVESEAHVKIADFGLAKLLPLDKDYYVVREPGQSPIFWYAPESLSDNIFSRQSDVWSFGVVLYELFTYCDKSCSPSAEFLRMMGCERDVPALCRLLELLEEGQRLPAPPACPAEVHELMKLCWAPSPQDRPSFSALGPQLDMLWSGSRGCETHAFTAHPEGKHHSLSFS

JAK2, sequence (O60674 whole entry): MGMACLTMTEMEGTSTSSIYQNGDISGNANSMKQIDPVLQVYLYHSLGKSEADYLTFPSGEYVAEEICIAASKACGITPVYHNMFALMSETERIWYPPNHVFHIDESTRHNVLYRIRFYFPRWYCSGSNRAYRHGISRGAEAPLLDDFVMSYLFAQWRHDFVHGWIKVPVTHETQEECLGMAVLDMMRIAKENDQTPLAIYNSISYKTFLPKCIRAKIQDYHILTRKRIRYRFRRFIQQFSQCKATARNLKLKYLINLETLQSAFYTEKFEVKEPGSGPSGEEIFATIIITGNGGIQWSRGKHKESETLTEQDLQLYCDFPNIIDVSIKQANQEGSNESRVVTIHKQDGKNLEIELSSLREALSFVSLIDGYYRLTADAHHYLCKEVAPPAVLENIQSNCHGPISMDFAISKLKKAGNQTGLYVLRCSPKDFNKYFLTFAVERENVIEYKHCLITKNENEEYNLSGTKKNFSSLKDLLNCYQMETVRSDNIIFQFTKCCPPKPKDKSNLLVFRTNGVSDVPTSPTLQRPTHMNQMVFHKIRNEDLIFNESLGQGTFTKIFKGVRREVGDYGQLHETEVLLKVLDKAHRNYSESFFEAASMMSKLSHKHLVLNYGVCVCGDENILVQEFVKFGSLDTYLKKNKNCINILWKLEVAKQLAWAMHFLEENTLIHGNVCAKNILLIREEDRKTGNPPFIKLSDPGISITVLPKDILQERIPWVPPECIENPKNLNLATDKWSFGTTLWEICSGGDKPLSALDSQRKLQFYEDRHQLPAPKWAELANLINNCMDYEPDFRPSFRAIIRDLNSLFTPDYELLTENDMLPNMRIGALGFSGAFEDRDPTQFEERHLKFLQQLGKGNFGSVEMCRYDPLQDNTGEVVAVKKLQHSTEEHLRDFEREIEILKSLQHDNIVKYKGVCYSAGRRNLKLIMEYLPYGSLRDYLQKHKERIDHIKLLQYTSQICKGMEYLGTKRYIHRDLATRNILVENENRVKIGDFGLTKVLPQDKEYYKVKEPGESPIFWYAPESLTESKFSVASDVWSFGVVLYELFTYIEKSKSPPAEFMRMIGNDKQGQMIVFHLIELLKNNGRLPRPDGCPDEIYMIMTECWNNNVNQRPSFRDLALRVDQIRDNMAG
TYK2, sequence (P29597 whole entry): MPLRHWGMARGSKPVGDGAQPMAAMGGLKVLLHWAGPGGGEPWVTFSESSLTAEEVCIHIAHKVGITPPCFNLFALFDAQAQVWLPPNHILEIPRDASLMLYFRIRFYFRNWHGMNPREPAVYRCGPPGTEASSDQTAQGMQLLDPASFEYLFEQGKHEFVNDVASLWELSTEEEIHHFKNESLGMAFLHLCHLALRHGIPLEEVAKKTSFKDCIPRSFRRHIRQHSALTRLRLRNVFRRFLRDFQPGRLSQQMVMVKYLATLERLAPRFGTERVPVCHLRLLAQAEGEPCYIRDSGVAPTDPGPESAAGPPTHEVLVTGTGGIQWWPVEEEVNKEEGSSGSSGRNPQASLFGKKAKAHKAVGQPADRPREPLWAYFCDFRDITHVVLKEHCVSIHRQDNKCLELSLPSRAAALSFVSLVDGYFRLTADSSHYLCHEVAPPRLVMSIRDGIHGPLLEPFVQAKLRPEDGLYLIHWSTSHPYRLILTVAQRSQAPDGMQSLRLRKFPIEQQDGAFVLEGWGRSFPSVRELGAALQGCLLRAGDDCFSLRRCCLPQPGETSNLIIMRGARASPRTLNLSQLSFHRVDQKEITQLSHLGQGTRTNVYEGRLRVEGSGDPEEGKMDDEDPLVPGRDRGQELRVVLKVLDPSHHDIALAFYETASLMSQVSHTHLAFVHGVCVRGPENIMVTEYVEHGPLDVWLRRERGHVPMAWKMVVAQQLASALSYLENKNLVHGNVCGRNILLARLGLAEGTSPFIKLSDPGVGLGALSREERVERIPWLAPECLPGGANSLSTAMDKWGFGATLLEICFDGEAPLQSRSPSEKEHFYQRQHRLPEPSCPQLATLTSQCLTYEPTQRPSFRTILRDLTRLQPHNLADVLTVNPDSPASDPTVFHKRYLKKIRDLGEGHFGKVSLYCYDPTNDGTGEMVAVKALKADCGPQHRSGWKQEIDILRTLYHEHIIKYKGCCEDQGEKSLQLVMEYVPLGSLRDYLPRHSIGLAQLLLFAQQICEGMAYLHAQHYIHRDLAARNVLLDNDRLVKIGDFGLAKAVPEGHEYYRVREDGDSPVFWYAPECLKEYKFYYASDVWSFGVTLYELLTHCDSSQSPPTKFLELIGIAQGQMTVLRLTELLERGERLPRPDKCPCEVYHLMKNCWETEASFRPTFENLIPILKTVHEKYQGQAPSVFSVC

SMILES	effect on JAK/STAT signaling (pSTAT3, pSTAT5) (JAK1/STAT3 signaling)	inhibitory effect on LX-2 proliferation induced by TGF-β ([1]; LX-2, TGF-β-induced, CCK8)	inhibitory effect on LX-2 cell growth versus tofacitinib or filgotinib ([1]; incubation with TGF-β for 72 h)	IC50 (JAK2)	IC50 (TYK2)	IC50 (JAK3)
COC(=O)c1ccc2c(c1)NC(=O)/C2=C(\Nc1ccc(N(C)C(=O)CN2CCN(C)CC2)cc1)c1ccccc1 [nintedanib]	did not affect the JAK/STAT pathway	dose-dependent inhibitory effects	superior to those of tofacitinib or filgotinib	–	–	–
CNC(=O)c1cnc2[nH]ccc2c1N[C@@H]1CCN(Cc2cnc(C(F)(F)F)nc2)[C@H](C)C1 (racemic) [compound 49]	–	–	–	8.78 nM	36.9 nM	8.39 nM
O=C(Nc1nc2cccc(-c3ccc(CN4CCS(=O)(=O)CC4)cc3)n2n1)C1CC1 [filgotinib]	reduced pSTAT3 and pSTAT5, but with less effect than 31g	–	–	–	–	–
